Results published in patent publication US20080311076A1, “Morpholinylanilinoquinazoline Derivatives For Use As Antiviral Agents” (ARROW THERAPEUTICS LIMITED, priority 2004, published 2008).

Tested on: HCV replicon cells Huh 9B
Assay: HCV replicon assay (luciferase) in Huh 9B replicon cells
Type: cell-based
Conditions: Hepatitis C virus; concentration reducing replicon level (luciferase activity) by 50% vs untreated cell control; 72 h incubation
Experimental: HCV replicon cells Huh 9B (ReBlikon), containing the firefly luciferase—ubiquitin—neomycin phosphotransferase fusion protein and EMCV-IRES driven HCV polyprotein with cell culture adaptive mutations.
Cells were cultured at 37° C. in a 5% CO2 environment and split twice a week on seeding at 2×10E6 cells/flask on day 1 and 1×10E6 3 days later. Some 0.25 mg/ml G418 was added to the culture medium (125 ul per 25 ml) but not the assay medium.
The culture medium consisted of DMEM with […] glucose and glutamax (Gibco 61965-026) supplemented with 1× non-essential amino acids, penicillin (100 IU/ml)/streptomycin (100 μg/ml), FCS (10%, 50 ml) and 1 mg/ml G418 (Invitrogen cat no 10131-027) & 10% foetal calf serum.
A flask of cells was trypsinised and a cell count carried out. Cells were diluted to 100,000 cells/ml and 100 μl of this used to seed one opaque white 96-well plate (for the replicon assay) and one flat-bottomed clear plate (for the tox assay) for every seven compounds to be tested for IC50. Wells G12 and H12 were left empty in the clear plate as the blank. Plates were then incubated at 37° C. in a 5% CO2 environment for 24 h.
On the following day compound dilutions are made up in medium at twice their desired final concentration in a clear round bottomed plate. All dilutions have a final DMSO concentration of 1%.
Once the dilution plate had been made up, controls and compounds were transferred to the assay plate (containing the cells) at 100 μl/well in duplicate plates.
Exception: in the white (replicon) plate, no compound was added to wells A1 and A2 and 100 μl of 1% DMSO was added to these instead. In the clear (Tox) plate, wells E12 & F12 only contained the DMSO control. Plates were then incubated at 37° C. with 5% CO2 for 72 h.
At the end of the incubation time, the cells in the white plate were harvested by washing with 200 μl/well of warm (37° C.) PBS and lysed with 20 μl cell culture lysis buffer (Promega). After 5 min incubation @ RT, luciferin solution was added to the luciferase assay buffer (LARB at 200 μl per 10 ml LARB. The M injector of the microplate luminometer (Lmax, Molecular Devices) was primed with […] injections. Plate were inserted into the luminometer and 100 μl luciferase assay reagent was added by the injector on the luminometer. The signal was measured using a 1 second delay followed by a 4 second measurement programme. The IC50, the concentration of the drug required for reducing the replicon level by 50% in relation to the untreated cell control value, can be calculated from the plot of the percentage reduction of the luciferase activity vs. drug concentration.

| Structure (SMILES) | IC50 [nM] |
| --- | --- |
| Cc1ccc(CNC(=O)c2ccc3ncnc(Nc4ccc(N5CCOCC5)cc4)c3c2)cc1 [Example 29, 4-(4-Morpholin-4-yl-phenylamino)-quinazoline-6-carboxylic acid 4-methyl-benzylamide] | < 5000 |
| CNC(=O)c1ccc2ncnc(Nc3ccc(N4CCOCC4)cc3)c2c1 [Example 30, 4-(4-Morpholin-4-yl-phenylamino)-quinazoline-6-carboxylic acid methylamide] | < 5000 |
| c1csc(-c2ccc3ncnc(Nc4ccc(N5CCOCC5)cc4)c3c2)c1 [Example 15, (4-Morpholin-4-yl-phenyl)-(6-thiophen-2-yl-quinazolin-4-yl)-amine] | < 1000 |
| CC(C)CCN(c1ccc(N2CCOCC2)cc1)c1ncnc2ccc(I)cc12 [Example 47, (6-Iodo-quinazolin-4-yl)-(3-methyl-butyl)-(4-morpholin-4-yl-phenyl)-amine] | < 5000 |
| OCc1ccc(-c2ccc3ncnc(Nc4ccc(N5CCOCC5)cc4)c3c2)o1 [Example 8, {5-[4-(4-morpholin-4-yl-phenylamino)-quinazolin-6-yl]-furan-2-yl}-methanol] | < 1000 |
| c1cc(-c2ccc3ncnc(Nc4ccc(N5CCOCC5)cc4)c3c2)cc(-n2cccn2)c1 [Example 23, (4-Morpholin-4-yl-phenyl)-[6-(3-pyrazol-1-yl-phenyl)-quinazolin-4-yl]-amine] | < 1000 |
| CNCc1ccc(-c2ccc3ncnc(Nc4ccc(N5CCOCC5)cc4)c3c2)o1 [Example 14, [6-(5-Methylaminomethyl-furan-2-yl)-quinazolin-4-yl]-(4-morpholin4-yl-phenyl)-amine] | < 25000 |
| FC(F)(F)c1cc(N2CCOCC2)ccc1Nc1ncnc2ccc(I)cc12 [Example 39, (6-Iodo-quinazolin-4-yl)-(4-morpholin-4-yl-2-trifluoromethyl-phenyl)-amine] | < 1000 |
| FC(F)(F)c1cc(N2CCOCC2)ccc1Nc1ncnc2ccc(-c3cccs3)cc12 [Example 40, (4-Morpholin-4-yl-2-trifluoromethyl-phenyl)-(6-thiophen-2-yl-quinazolin-4-yl)-amine] | < 1000 |
| COc1ncc(-c2ccc3ncnc(Nc4ccc(N5CCOCC5)cc4)c3c2)cn1 [Example 19, [6-(2-Methoxy-pyrimidin-5-yl)-quinazolin-4-yl]-(4-morpholin-4-yl-phenyl)-amine] | < 1000 |
